The structures appear in SMILES notation. Values after ≈ are worked out from the molar mass of the structure shown. Read-outs that look alike come from different tables or passages of the source.

A short description of data set [1]: Thermodynamic solubility assay in DPBS. Type of data set: physicochemical. Conditions: for solubility at 24 h: Dulbecco's phosphate-buffered saline (DPBS), 20 °C, aqueous buffer, thermodynamic from solid, thermodynamic, 24 h shaking at room temperature, read-out: Solubility (µg/mL) ± SD. The protocol: To address potential challenges related to poorly soluble compounds, such as variable and limited intestinal absorption, we conducted thermodynamic solubility studies.
Quantitative HPLC analyses were performed similarly to the chemical stability studies. A standard solution of the tested compound was prepared in methanol at a concentration of 2 mg/mL. The standard solution was diluted with methanol to obtain five solutions with different concentrations ranging from 0.06 to 0.1 mg/mL or 0.035 to 0.05 mg/mL (for II), and they were quantified via HPLC. The calibration curve was plotted using AUC against the concentration (mg/mL). Next, 2 mg of the tested compound was dissolved in 1 mL of Dulbecco’s phosphate-buffered saline (DPBS), and the mixture was constantly agitated at 20 °C for 24 h in a thermoshaker. After that time, the mixture was filtered through a cellulose acetate syringe filter (pore size 0.22 μm) and the solution was analyzed via HPLC. The solubility of the tested compounds was calculated using the calibration curves (mg/mL).

A further data set deals with T1, MAPK1 (Homo sapiens, UniProt P27361).
T1 construct: purchased Eurofins Discovery (KinaseProfiler service)
As to the kind of experiment: Eurofins KinaseProfiler radiometric selectivity screen. Type of data set: biochemical. As to conditions: Km ATP, remaining enzyme activity, n = 2. The procedure:
(§1) Compound 62 is an ATP-competitive inhibitor of GSK-3β, raising concerns about selectivity. Therefore, we performed a selectivity screening at Eurofins Discovery on the CMGC group of kinases, which included the CDK, DYRK, MAPK, and GSK families (Figure 3 and Table S1 in the SI).
(§2) Selectivity studies for compound 62
(§3) Selectivity studies were performed at Eurofins in Kinase Enzymatic Radiometric [Km ATP]
(§4) Kinase Profiler Lead Hunter Assay. The percentage of enzymatic activity was measured at 1
(§5) µM of compound 62 in duplicate for 17 selected kinases.
(§6) Table S1. Inhibitory activity of compound 62 against panel of selected CMGC kinases.
(§7) kinase % of enzyme activity at 1 μM of compound 62±SD*
(§8) *Where n = 2, the value reported here is actually range / √ 2 .

For the next data set, the target named is T2, DYRK1B (Homo sapiens, UniProt Q9Y463).
T2 construct: purchased Eurofins Discovery (KinaseProfiler service)
The data set is described as above. Conditions: Km ATP, remaining enzyme activity, n = 2. In kind it is biochemical. The protocol: as §1, §2, §3, §4, §5, §6, §7, §8

A further data set has as its target T3, DYRK1A (Homo sapiens, UniProt Q13627).
T3 construct: purchased Eurofins Discovery (KinaseProfiler service)
The data set is described as above. In kind it is biochemical. Conditions: Km ATP, remaining enzyme activity, n = 2. The procedure:
as §1, §2, §3, §4, §5, §6, §7, §8

The next data set addresses T4, JNK2α2 (Homo sapiens, UniProt P45984).
T4 construct: purchased Eurofins Discovery (KinaseProfiler service)
The description is as above. In kind it is biochemical. Conditions: Km ATP, remaining enzyme activity, n = 2. The protocol:
as §1, §2, §3, §4, §5, §6, §7, §8

In a further data set the target is T5, GSK-3α (Homo sapiens, UniProt P49840).
T5 construct: purchased Eurofins Discovery (KinaseProfiler service)
The description is as above. In kind it is biochemical. Conditions: Km ATP, remaining enzyme activity, n = 2. The protocol: as §1, §2, §3, §4, §5, §6, §7, §8

In a further data set the target is T6, MAPK2 (Homo sapiens, UniProt P28482).
T6 construct: purchased Eurofins Discovery (KinaseProfiler service)
Described as above. Type of data set: biochemical. As to conditions: Km ATP, remaining enzyme activity, n = 2. The protocol: as §1, §2, §3, §4, §5, §6, §7, §8

A further data set has as its target T7, SAPK3 (Homo sapiens, UniProt P53778).
T7 construct: purchased Eurofins Discovery (KinaseProfiler service)
Described as above. In kind it is biochemical. As to conditions: Km ATP, remaining enzyme activity, n = 2. The protocol: as §1, §2, §3, §4, §5, §6, §7, §8

The next data set has as its target T8, CDK7/cyclinH/ MAT1 (Homo sapiens, UniProt P50613).
T8 construct: purchased Eurofins Discovery (KinaseProfiler service)
Described as above. Type of data set: biochemical. As to conditions: Km ATP, remaining enzyme activity, n = 2. The protocol: as §1, §2, §3, §4, §5, §6, §7, §8

The next data set concerns the target T9, CDK2/cyclinA (Homo sapiens, UniProt P24941).
T9 construct: purchased Eurofins Discovery (KinaseProfiler service)
The data set is described as above. In kind it is biochemical. Conditions: Km ATP, remaining enzyme activity, n = 2. The protocol: as §1, §2, §3, §4, §5, §6, §7, §8

The target in the next data set is T10, SAPK2b (Homo sapiens, UniProt Q15759).
T10 construct: purchased Eurofins Discovery (KinaseProfiler service)
Described as above. As to conditions: Km ATP, remaining enzyme activity, n = 2. In kind it is biochemical. The protocol: as §1, §2, §3, §4, §5, §6, §7, §8

Data set [2] deals with T11, GSK-3β (Homo sapiens, UniProt P49841). In words: Kinetic studies of GSK-3β inhibition (ADP-Glo, varying ATP). Type of data set: biochemical. On the set-up: purchased Promega. The protocol:
Non-linear regression analysis of the Michaelis–Menten equation was conducted on ATP-velocity curves to calculate the Vmax and Km parameters. […] Lineweaver–Burk and Cornish–Bowden plots, included in the Supporting Information (Figure S1A,B), further illustrate this observation. […] (refer to Supporting Information, Figure S2). The negative Ki value was directly derived from the plot at the x-axis intersection.
Kinetic studies were performed using the GSK-3β Kinase Enzyme System (Promega; Madison, WI, USA) and ADP-Glo™ bioluminescent assay (Promega; Madison, WI, USA), following the manufacturer’s instructions. The general workflow is described in Section 6.9. Evaluation of In Vitro Inhibitory Potencies towards Kinases GSK-3β, IKK-β, and ROCK-1. […] The substrate concentration was kept constant. The luminescence was measured using the EnSpire multimode microplate reader (PerkinElmer, Waltham, MA, USA). Each data point was collected in triplicate. Vmax and Km values of the Michaelis–Menten kinetics were calculated using nonlinear regression from ATP–velocity curves. Lineweaver–Burk and Cornish–Bowden plots were obtained via linear regression in GraphPad Prism (GraphPad Prism 9; GraphPad Software, San Diego, CA, USA). The Ki value of inhibitor 62 was determined by replotting the Lineweaver–Burk plots data (Km versus [I]).
Kinetic studies of GSK-3β inhibition by compound 62
type of GSK-3β inhibition by compound 62; V = initial velocity rate, S = ATP concentration,
I = inhibitor concentration.
Figure S2. Determination of Ki value for ATP-competitive inhibitor 62. Data replot from
= Michaelis-Menten constant.
(also on this page, place not known: K i -15 -10 -5 5 10 15 -100 -50 50 100 Cmpd 62_Ki determination I [nM] Km -Ki) […]
For orientation: ADP-Glo first removes unused ATP, then detects ADP through luciferase.

Data set [3] can be described thus: Metabolic stability in mouse liver microsomes. Type of data set: in vitro ADME. Conditions: % compound remaining after 15 min with mouse liver microsomes, NADPH.
Description: Metabolic stability was assessed using pooled microsomes from the liver of male mice (CD-1) from Sigma-Aldrich (St. Louis, MO, USA). Incubations were carried out in 96-well plates. Potassium phosphate buffer (100 mM, pH 7.4, + 2 mM MgCl2) containing murine liver microsomes (0.5 mg protein/mL) was pre-incubated with test compounds or positive control (1 µM, 0.2% DMSO) at 37 °C for 15 min (N = 2). Reactions were initiated by adding NADPH (1 mM). The reactions were also incubated without NADPH to exclude non-NADPH metabolism. The reactions were terminated after 15 min via the addition of an acetonitrile quenching solution containing an internal standard (labetalol, 0.5 mM). The plates were centrifuged at 4000 rpm for 30 min at 4 °C, and an aliquot of supernatant was diluted with water before analysis via UPLC-MS/MS. The UPLC-MS/MS system consisted of a Waters Acquity Premier (Waters Corporation, Milford, MA, USA) coupled with a Waters Xevo TQ-S Cronos mass spectrometer (electrospray ionization mode ESI). […] Chromatograms were recorded using a Waters eλ PDA detector. Spectra were analyzed in the 200–700 nm range with 1.2 nm resolution and a sampling rate of 20 points/s. […]
Data set [4] can be described thus: Chemical stability assay in phosphate buffer pH 7.4. Type of data set: physicochemical. Conditions: phosphate buffer pH 7.4, 37 °C, 120 min. The protocol: Before conducting the metabolic stability studies, we assessed the chemical stability of 62 and II in phosphate buffer at pH 7.4.
Quantitative HPLC analyses were acquired using Waters Alliance e2695 separations module (Waters, Milford, CT, USA), containing 2998 photodiode array (PDA), a detector (Waters, Milford, CT, USA), and a SpeedROD RP-18e 50–4.6 mm column (Merck, KGaA, Darmstadt, Germany). The temperature of the column was preserved at 30 °C. The experiment was conducted under the following conditions: a flow rate of 5 mL/min, eluent A (water/0.1% HCOOH), eluent B (MeCN/0.1% HCOOH), and a gradient starting from 0% of B to 100% of B for 3 min. Each sample was injected at a volume of 10 μL in triplicate, and the spectra were analyzed at the maximum wavelength. Potassium phosphate buffer (100 mM, pH 7.4, + 2 mM MgCl2) was incubated with the test compounds (1 µM, 0.2% DMSO) at 37 °C for 120 min (N = 2).

Data set [5] addresses T11, GSK-3β. As to the kind of experiment: Eurofins KinaseProfiler radiometric selectivity screen. Type of data set: biochemical. On the set-up: purchased Eurofins Discovery (KinaseProfiler service). The protocol:
as §1, §2, §3, §4, §5, §6, §7, §8

T11 sequence (P49841 whole entry): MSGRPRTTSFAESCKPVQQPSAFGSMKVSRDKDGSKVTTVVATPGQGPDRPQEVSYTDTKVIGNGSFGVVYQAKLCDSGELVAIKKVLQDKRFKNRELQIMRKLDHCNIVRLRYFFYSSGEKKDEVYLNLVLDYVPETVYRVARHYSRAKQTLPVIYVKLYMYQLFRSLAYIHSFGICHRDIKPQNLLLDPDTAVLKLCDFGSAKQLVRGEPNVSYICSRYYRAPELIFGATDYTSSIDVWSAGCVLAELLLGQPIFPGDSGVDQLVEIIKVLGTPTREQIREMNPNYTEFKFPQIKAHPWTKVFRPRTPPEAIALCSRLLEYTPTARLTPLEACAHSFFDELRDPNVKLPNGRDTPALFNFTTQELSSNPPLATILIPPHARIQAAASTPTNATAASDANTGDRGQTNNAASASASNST
T5 sequence (P49840 whole entry): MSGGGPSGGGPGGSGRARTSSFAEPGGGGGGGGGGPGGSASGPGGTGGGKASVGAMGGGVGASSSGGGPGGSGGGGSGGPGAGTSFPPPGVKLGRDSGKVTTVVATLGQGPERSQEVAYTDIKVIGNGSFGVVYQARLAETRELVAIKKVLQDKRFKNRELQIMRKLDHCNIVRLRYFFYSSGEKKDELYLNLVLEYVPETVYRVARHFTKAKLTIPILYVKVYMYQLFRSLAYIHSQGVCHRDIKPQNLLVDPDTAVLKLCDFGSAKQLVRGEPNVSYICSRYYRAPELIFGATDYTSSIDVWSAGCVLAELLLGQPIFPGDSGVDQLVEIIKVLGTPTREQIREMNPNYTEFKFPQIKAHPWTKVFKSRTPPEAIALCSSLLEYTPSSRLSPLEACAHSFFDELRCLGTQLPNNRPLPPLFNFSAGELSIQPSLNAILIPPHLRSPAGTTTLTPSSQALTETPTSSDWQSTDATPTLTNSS
T1 sequence (P27361 whole entry): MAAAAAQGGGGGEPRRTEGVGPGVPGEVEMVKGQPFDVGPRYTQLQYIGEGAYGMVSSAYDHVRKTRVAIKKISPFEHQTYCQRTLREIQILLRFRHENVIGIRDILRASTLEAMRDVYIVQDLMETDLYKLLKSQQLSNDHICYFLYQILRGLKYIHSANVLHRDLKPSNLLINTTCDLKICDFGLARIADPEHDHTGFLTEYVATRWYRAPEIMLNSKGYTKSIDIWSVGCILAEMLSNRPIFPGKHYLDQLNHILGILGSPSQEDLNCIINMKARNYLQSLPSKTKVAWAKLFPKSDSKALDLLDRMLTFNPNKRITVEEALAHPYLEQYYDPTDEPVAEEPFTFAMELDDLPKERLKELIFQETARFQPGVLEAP
T7 sequence (P53778 whole entry): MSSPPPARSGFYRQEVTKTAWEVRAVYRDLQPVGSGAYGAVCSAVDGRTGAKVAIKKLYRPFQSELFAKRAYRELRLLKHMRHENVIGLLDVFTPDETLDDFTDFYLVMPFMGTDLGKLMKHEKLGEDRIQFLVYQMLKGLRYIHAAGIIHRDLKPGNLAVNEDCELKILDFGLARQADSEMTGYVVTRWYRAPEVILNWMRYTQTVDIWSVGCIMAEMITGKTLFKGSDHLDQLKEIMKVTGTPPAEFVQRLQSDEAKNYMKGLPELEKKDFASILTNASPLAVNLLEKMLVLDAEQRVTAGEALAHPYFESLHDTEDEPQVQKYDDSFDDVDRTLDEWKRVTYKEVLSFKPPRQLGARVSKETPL
T8 sequence (P50613 whole entry): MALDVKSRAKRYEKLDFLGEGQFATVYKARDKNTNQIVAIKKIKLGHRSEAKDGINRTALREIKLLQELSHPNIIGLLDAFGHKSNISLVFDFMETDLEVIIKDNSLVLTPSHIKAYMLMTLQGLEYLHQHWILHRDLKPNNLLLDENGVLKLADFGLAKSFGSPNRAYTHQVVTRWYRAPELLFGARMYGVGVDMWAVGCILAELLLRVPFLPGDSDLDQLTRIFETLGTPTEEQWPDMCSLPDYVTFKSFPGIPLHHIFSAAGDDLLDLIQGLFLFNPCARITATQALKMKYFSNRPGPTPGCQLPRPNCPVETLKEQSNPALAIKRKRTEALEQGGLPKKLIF
T8 sequence (P51946 whole entry partner): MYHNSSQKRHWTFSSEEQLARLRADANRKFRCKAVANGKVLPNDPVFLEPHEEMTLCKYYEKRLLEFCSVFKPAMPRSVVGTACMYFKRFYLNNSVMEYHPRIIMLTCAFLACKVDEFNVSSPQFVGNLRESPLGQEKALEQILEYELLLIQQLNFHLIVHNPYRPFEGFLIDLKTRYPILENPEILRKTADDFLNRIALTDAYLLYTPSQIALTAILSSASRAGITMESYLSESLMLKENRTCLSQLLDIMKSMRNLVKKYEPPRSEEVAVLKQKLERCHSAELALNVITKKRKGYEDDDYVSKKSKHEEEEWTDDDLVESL
T8 sequence (P51948 whole entry partner): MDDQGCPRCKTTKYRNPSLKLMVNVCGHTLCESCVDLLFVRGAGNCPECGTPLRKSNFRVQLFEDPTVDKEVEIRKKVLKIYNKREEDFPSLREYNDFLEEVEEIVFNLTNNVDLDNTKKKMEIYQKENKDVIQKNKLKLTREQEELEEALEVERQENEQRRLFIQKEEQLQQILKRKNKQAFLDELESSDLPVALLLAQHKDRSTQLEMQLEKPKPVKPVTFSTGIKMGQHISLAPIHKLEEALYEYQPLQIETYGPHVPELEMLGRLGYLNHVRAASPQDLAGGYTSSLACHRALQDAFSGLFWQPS
T10 sequence (Q15759 whole entry): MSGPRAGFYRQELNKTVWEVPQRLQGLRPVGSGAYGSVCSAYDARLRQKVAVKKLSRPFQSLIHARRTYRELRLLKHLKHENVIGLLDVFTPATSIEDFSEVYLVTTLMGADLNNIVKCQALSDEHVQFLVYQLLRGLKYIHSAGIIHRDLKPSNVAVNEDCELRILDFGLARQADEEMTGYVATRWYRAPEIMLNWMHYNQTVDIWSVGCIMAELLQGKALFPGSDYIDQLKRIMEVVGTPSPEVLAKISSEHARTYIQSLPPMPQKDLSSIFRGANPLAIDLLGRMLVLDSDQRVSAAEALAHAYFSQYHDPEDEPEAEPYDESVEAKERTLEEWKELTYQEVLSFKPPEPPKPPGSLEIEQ
T2 sequence (Q9Y463 whole entry): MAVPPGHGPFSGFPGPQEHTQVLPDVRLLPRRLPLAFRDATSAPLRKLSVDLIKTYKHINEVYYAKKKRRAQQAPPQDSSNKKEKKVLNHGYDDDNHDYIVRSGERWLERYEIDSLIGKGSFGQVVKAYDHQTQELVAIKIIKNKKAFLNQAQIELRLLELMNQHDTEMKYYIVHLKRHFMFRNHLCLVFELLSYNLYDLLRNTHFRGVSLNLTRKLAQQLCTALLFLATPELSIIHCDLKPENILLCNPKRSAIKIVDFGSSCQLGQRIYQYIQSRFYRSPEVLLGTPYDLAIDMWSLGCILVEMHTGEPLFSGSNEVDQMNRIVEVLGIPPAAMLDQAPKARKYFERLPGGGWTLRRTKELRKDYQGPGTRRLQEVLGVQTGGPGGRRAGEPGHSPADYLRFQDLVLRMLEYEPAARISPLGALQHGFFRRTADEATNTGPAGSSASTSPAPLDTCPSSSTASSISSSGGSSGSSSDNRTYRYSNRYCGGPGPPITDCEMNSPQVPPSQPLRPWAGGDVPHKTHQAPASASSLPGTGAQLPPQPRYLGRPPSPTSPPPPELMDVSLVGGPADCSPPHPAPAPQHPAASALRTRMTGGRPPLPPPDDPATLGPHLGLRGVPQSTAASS
T6 sequence (P28482 whole entry): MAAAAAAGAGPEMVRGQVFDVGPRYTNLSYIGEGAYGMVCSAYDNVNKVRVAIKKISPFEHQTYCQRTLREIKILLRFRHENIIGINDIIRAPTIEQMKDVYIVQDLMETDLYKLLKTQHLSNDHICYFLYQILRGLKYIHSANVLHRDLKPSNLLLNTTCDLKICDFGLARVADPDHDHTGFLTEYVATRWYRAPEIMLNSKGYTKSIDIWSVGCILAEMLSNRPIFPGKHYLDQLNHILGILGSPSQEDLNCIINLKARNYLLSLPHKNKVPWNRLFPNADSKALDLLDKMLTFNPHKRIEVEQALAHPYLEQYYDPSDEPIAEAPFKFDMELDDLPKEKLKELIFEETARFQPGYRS
T4 sequence (P45984 whole entry): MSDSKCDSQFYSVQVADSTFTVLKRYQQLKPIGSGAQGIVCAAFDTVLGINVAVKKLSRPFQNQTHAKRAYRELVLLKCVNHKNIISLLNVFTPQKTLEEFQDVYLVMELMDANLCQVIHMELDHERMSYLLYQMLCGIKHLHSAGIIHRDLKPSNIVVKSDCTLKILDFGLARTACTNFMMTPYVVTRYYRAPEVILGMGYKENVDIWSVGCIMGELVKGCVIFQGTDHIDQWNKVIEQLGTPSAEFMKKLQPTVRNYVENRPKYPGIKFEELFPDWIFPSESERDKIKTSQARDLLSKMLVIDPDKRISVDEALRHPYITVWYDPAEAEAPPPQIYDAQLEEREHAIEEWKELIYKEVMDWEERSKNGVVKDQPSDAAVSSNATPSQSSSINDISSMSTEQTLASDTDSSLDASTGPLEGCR

For orientation: Ki means the dissociation constant of the complex between target and ligand, obtained from inhibition or displacement. In general, inhibition refers to the drop in the measured response relative to a control, in per cent. Low readings indicate little suppression, high ones strong suppression. In the case of `O=C1NC2(CCOC2)Nc2cc(-c3ccnc(NC(=O)C4CC4)c3)sc21` (stereo not shown) [Compound 62, N-(4-(4′-Oxo-3′,4,4′,5-tetrahydro-1′H,2H-spiro[furan-3,2′-thieno [3,2-d]pyrimidin]-6′-yl)pyridin-2-yl)cyclopropanecarboxamide], in data set [1], the “increase in solubility compared to reference compound II” value is given as “sixfold” and the solubility at 24 h turned out to be 31 ± 1 µg/mL (≈ 83.7 µM). Moreover, the “% of enzyme activity at 1 μM of compound 62±SD, MAPK1” value at MAPK1 is listed as 37±2%. In addition, the “% of enzyme activity at 1 μM of compound 62±SD, DYRK1B” value on DYRK1B turned out to be 1±1%. Besides, the “% of enzyme activity at 1 μM of compound 62±SD, DYRK1A” value at DYRK1A was determined as 1±1%. Besides, the “% of enzyme activity at 1 μM of compound 62±SD, JNK2α2” value at JNK2α2 was found to be 89±14%. For the same molecule, at GSK-3α, the “% of enzyme activity at 1 μM of compound 62±SD, GSK-3α” value came out at 0±0%. Moreover, on MAPK2, the “% of enzyme activity at 1 μM of compound 62±SD, MAPK2” value came out at 73±7%. The “% of enzyme activity at 1 μM of compound 62±SD, SAPK3” value on SAPK3 was found to be 22±3%. At CDK7/cyclinH/ MAT1, the “% of enzyme activity at 1 μM of compound 62±SD, CDK7/cyclinH/ MAT1” value came to 57±1%. Besides, the “% of enzyme activity at 1 μM of compound 62±SD, CDK2/cyclinA” value at CDK2/cyclinA was 26±2%. Besides, the “% of enzyme activity at 1 μM of compound 62±SD, SAPK2b” value on SAPK2b worked out at 98±1%. Moreover, the “type of GSK-3β inhibition” value on GSK-3β [2] (ATP 10-100 μM, inhibitor 0-100 nM, Km rises, Vmax preserved) was “ATP-competitive”. Moreover, at GSK-3β [2] (replot from Lineweaver-Burk plots, unit inferred, read-out: Determined Ki (Figure S2)), the Ki was determined as 2.22 nM. In addition, on GSK-3β [2] (replot of Lineweaver–Burk data, Km versus [I], read-out: Ki GSK-3β), the Ki amounted to 2 nM. The “MLM Stability (%) ± SD” value in [3] stood at 100 ± 1%. For the same molecule, the “chemical stability, % compound remaining relative to 0 min” value in data set [4] is given as 100%. In addition, on GSK-3β [5] (Km ATP, remaining enzyme activity, n = 2), the “% of enzyme activity at 1 μM of compound 62±SD, GSK-3β” value worked out at 1±1%. For the same molecule, at 1 µM the inhibition against GSK-3β [5] (text says GSK family) was 99%.
Regarding `COc1nc(-c2ccnc(NC(=O)C3CC3)c2)sc1C(N)=O` [II, reference compound], the solubility at 24 h in [1] is 5 ± 1 µg/mL (≈ 15.7 µM). Moreover, the “MLM Stability (%) ± SD” value in data set [3] is 100 ± 0%. In data set [4], the “chemical stability, % compound remaining relative to 0 min” value is 100%.
